Measured values taken from US20030139609A1, “Aziridinyl quinone antitumor agents based on indoles and cyclopent[b]indoles” (priority 2001, published 2003).
Several values for one entry are separate records, joined by “and”; a condition that tells them apart may be missing. Equal entries are not always repeated. Where two headings read alike, the source gives them in different places.

What was measured:
[1] = test system: 600 bp calf thymus DNA; assay: DNA reductive alkylation by catalytically reduced aziridinyl quinones; type: biochemical; conditions: for DNA alkylation percentage: catalytic reduction, anaerobic, pH 7.4 tris buffer, 30° C., 24 h, absorbance at 550 nm
Procedure: DNA Alkylation Screening of Series 1-9. The extent of DNA reductive alkylation was determined by catalytic reduction of the aziridinyl quinones in the presence of 600 bp calf thymus DNA. Oxidative workup afforded DNA colored blue as a result of the aminoquinone chromophore. […] The anaerobic conditions employed for DNA reductive alkylation assays is not meant to mimic the environment of tumor cells. These conditions do permit an accurate assessment of the structural requirements for DNA alkylation by the hydroquinone species. To be sure, agents incapable of akylating DNA under these ideal conditions will not do so in the typical cellular environment.
Alkylation of DNA by Reduced Indoloquinones. To a mixture of 1-2 mg of sonicated (600 bp) calf thymus DNA in 2.0 mL of 0.05 M of pH 7.4 tris buffer and 2 mg of Pd on carbon was added a five-to-one base pair equivalent amount of the indoloquinone dissolved in 0.5 mL of dimethylsulfoxide. The resulting solution was degassed under argon for 30 min., after which the mixture was purged with H2 for 10 min. The solution was then purged with argon for 10 min. and placed in a 30° C. bath for 24 h. The reaction was opened to the air and the catalyst was removed with a Millex-PF […] syringe filter. The filtrate was adjusted to 0.3 M acetate with a 3 M stock solution of pH 5.1 acetate and then diluted with two volumes of ethanol. The mixture was chilled at −20° C. for 12 h and the DNA pellet collected by centrifuging at 12,000 g for 20 min. The pellet was redissolved in water and then precipitated and centrifuged again. The resulting blue or red pellet was suspended in ethanol, centrifuged, and dried. The dried pellet was weighed and dissolved in 1 mL of double distilled water resulting in a clear colored solution with […]max˜550 nm, □˜750 M^−1 cm^−1. This is the chromophore of the aminoquinone resulting from nucleophile-mediated opening of the aziridine ring. Model 2′-chloroethyl aminoquinones for extinction coefficient determination were prepared by treatment of the indoloquinone with HCl. {Skibo, E. B. and Xing, C., Chemistry and DNA Alkylation Reactions of Aziridinyl Quinones: Development of an Efficient Alkylating Agent of the Phosphate Backbone, Biochemistry, 1998, 37, 15199-15213}.

[2] = test system: National Cancer Institute 60-cell line; assay: NCI 60-cell line in vitro screen (average cytotoxicity and cancer specificity); conditions: for Average Log LC50 60-Cell Line: mean over 60 cell lines, ± value measures cancer specificity
Procedure: Cytotoxic and Cytostatic Screening of Series 1-9. […] The cytostatic parameters include GI50 and TGI, which are the concentrations of drug required for 50% growth inhibition and total growth inhibition, respectively. The cytotoxic parameter is the LC50, which is the concentration required for 50% cell kill.
4. […] Cancer specificity is measured from the ± value under the “Average Log LC50 60-Cell Line” heading of Table 5. A ± value greater than 2 indicates a greater than 100-fold higher/lower cytotoxicity in some histological cancer types compared to the mean cytotoxicity.
The DT-diaphorase levels in the National Cancer Institute 60-cell line in vitro screen have been determined and correlated with the cytotoxicity of antitumor agents activated by 2-electron reduction. {Fitzsimmons, S. A., Workman, P., Grever, M., Paull, K., Camalier, R., and Lewis, A. D., Reductase Enzyme Expression Across the National Cancer Institute Tumor Cell Line Panel: Correlation with Sensitivity To Mitomycin C and EO9, J. Natl. Cancer Inst., 1996, 88, 259-69}. Sensitive cancers usually include NSC lung and colon cancers (and to a lesser extent CNS, melanoma, and renal cancers) by virtue of their elevated DT-diaphorase levels.

[3] = test system: NCI-H460 non-small-lung cancer cell line; assay: NCI In Vitro Cell Line Screening, NSC H460 cell line; type: cell-based; conditions: for Log TGI NSC H460: concentration for total growth inhibition; for GI50 / CC50: Homo sapiens
From the text: Cytotoxic and Cytostatic Screening of Series 1-9.

[4] = test system: B16 melanoma; assay: animal or person; type: in vivo; conditions: for in vivo toxicity (in words) / in vivo antitumor activity (in words): 2, 3 or 5 mg/kg/day; for response vs control in vivo at 2 mg/kg / response vs control in vivo at 3 mg/kg / response vs control in vivo at 5 mg/kg: Mus musculus, B16, 600 h, read-out: In vivo T/C (Treated/Control)
From the text: Shown in Tables 6 and 7 are B16 melanoma syngraft assays {Griswold, D. P., Consideration of the Subcutaneously Implanted B16 Melanoma as a Screening Model for Potential Anticancer Agents, Cancer Chemother Reports, 1972, 3, 315-324} of some members of Series 1-9, as well as related compounds previously reported from this laboratory. {Xing, C. G., Wu, P., Skibo, E. B., and Dorr, R. T., Design of cancer-specific antitumor agents based on aziridlinylcyclopent[b]indoloquinones, J. Med. Chem., 2000, 43, 457-466}. Each agent was evaluated at three doses in C57/bl mice: 2, 3 or 5 mg/kg/day, on days 1, 5, and 9 after subcutaneous tumor implantation of 10^5 cells in the front flank on day 0. “Toxic” means that there was early lethality, or ≧50% lethality prior to any deaths in the control group. The treated over control values (T/C) were measured at day 25 of the study. A T/C value <40% is considered active.
In vivo Evaluation. The B-16 melanoma in C57/bl mice syngraft model was employed to determine in vivo activity. {Griswold, D. P., Consideration of the Subcutaneously Implanted B16 Melanoma as a Screening Model for Potential Anticancer Agents, Cancer Chemother Reports, 1972, 3, 315-324}. Each agent was evaluated at three doses: 2, 3 or 5 mg/kg/day, on days 1, 5, and 9 after subcutaneous tumor implantation of 10^5 cells in the front flank on day 0. “Toxic” means that there was early lethality, or ≧50% lethality prior to any deaths in the control group. The treated over control values (T/C) were measured at day 25 of the study. A T/C value<40% is considered active. […] The control was obtained with drug-free animals.

[5] = NCI-H460, concentration for 50% growth inhibition, read-out: Log GI50 NSC H460 (converted)
[6] = NCI-H460, read-out: Log LC50 NSC H460, concentration for 50% cell kill (converted)
[7] = 5 mg/Kg/Day on days 1, 5, 9, T/C at day 25, <40% active
[8] = 2 mg/Kg/Day on days 1, 5, 9, T/C at day 25, <40% active
[9] = 3 mg/Kg/Day on days 1, 5, 9, T/C at day 25, <40% active
[10] = NCI-H460, read-out: Log GI50 NSC H460 (converted)

## 6-Aziridinyl-3-(hydroxymethyl)-2-methylcarboxylindol-4,7-dione [Compound 9b]
[1]
  % of DNA bases reductively activated: 2%
  DNA alkylation percentage: 2.2%
[2]
  Average Log LC50 60-Cell Line: −5.20 ± 1.04 and −5.32 ± 1.14
[2]; text b52, FIG. 4
  cytostatic/cytotoxic activity versus histological cancer type (in words): significant cytotoxic and cytostatic properties
[3]; concentration for 50% cell kill
  Log LC50 NSC H460: −5.21 and −4.95
[3]; concentration for 50% growth inhibition
  Log GI50 NSC H460: −5.90 and −5.80
[3]
  Log TGI NSC H460: −5.55 and −5.39

## O=C1C=C(N2CC2)C(=O)c2c1[nH]c1c2CCC1O (stereo not shown) [Compound 1a, 7-Aziridinyl-3-hydroxy-1,2,3,4-tetrahydrocyclopent[b]indole-5,8-dione]
[1]
  DNA alkylation percentage: 22.5%
[2]
  Average Log LC50 60-Cell Line: −5.66 ± 1.52
[3]; [5]
  GI50: 0.01 µM
[3]; [6]
  CC50: 0.295 µM
[3]
  Log TGI NSC H460: −6.99

## CC1=C(N2CC2)C(=O)c2c([nH]c3c2CCC3O)C1=O (stereo not shown) [Compound 2a, 7-Aziridinyl-3-hydroxy-6-methyl-1,2,3,4-tetrahydrocyclopent[b]indole-5,8-dione]
[1]
  DNA alkylation percentage: 11.2%
[3]; [5]
  GI50: 0.01 µM

## CC(=O)OC1CCc2c1[nH]c1c2C(=O)C=C(N2CC2)C1=O (stereo not shown) [Compound 3b, 3-Acetoxy-6-aziridinyl-1,2,3,4-tetrahydrocyclopent[b]indole-5,8-dione]
[1]
  DNA alkylation percentage: 29%
[4]; [7]
  In vivo T/C (Treated/Control): Toxic (“Toxic” means ≧ 50% lethality before any control growth deaths)

## CC(=O)OC1CCc2c3c(n(C(C)=O)c21)C(=O)C(N1CC1)=CC3=O (stereo not shown) [Compound 3c, 6-Aziridinyl-3-acetoxy-4-acetyl-1,2,3,4-tetrahydrocyclopent[b]indole-5,8-dione]
[4]
  in vivo toxicity (in words): toxic
  response vs control in vivo at 2 mg/kg: > 50%
  response vs control in vivo at 3 mg/kg: > 50%
  response vs control in vivo at 5 mg/kg: > 50%

## CC1=C(N2CC2)C(=O)c2[nH]c3c(c2C1=O)CCC3O (stereo not shown) [Compound 4a]
[1]
  DNA alkylation percentage: 10%
[4]
  in vivo toxicity (in words): without any toxicity
[4]; [8]
  response vs control in vivo at 2 mg/kg: 75%
[4]; [9]
  response vs control in vivo at 3 mg/kg: 45%
[3]; [5]
  GI50: 0.01 µM
[3]; [6]
  CC50: 100 µM
[3]
  Log TGI NSC H460: −6.97

## O=C1C=C(N2CC2)C(=O)c2c1[nH]c(CO)c2CO [Compound 6a, 5-Aziridinyl-2,3-di(hydroxymethyl)indole-4,7-dione]
[1]
  DNA alkylation percentage: 16.7%
[4]; [8]
  In vivo T/C (Treated/Control): Toxic (“Toxic” means ≧ 50% lethality before any control growth deaths)
[4]; [9]
  In vivo T/C (Treated/Control): Toxic (“Toxic” means ≧ 50% lethality before any control growth deaths)
[4]; [7]
  In vivo T/C (Treated/Control): Toxic (“Toxic” means ≧ 50% lethality before any control growth deaths)

## CCOC(=O)c1[nH]c2c(c1CO)C(=O)C(N1CC1)=CC2=O [Compound 6c, 5-Aziridinyl-2-ethylcarboxyl-3-(hydroxymethyl)indole-4,7-dione]
[2]
  Average Log LC50 60-Cell Line: −5.79 ± 1.98
[3]; [10]
  GI50: 0.01 µM
[3]; [6]
  CC50: 0.631 µM
[3]; NCI-H460, read-out: −log LC50 value, H460 cell line (converted)
  CC50: 0.631 µM
[3]
  Log TGI NSC H460: −7 and −6.95

## CC(=O)OCc1[nH]c2c(c1COC(C)=O)C(=O)C(N1CC1)=CC2=O [Compound 6e, 5-Aziridinyl-2,3-di(acetoxymethyl)indole-4,7-dione]
[1]
  DNA alkylation (in words): high DNA alkylation percentages
  DNA alkylation percentage: 43%

## CCOC(=O)c1[nH]c2c(c1CO)C(=O)C(N1CC1)=C(C)C2=O [Compound 7b, 5-Aziridinyl-2-ethylcarboxyl-3-hydroxymethyl-6-methylindole-4,7-dione]
[2]
  Average Log LC50 60-Cell Line: −5.69 ± 2.31 and −5.75 ± 2.25
[3]; [10]
  GI50: 0.01 µM
[3]
  Log TGI NSC H460: −7.99 and −7.96

## CC1=C(N2CC2)C(=O)c2[nH]c(CO)c(CO)c2C1=O [Compound 8a, 6-Aziridinyl-2,3-di(hydroxymethyl)-5-methylindole-4,7-dione]
[1]
  DNA alkylation percentage: 4%
[4]; [9]
  In vivo T/C (Treated/Control): Toxic (“Toxic” means ≧ 50% lethality before any control growth deaths)
[4]; [7]
  In vivo T/C (Treated/Control): Toxic (“Toxic” means ≧ 50% lethality before any control growth deaths)
[4]; [8]
  response vs control in vivo at 2 mg/kg: 54%

## COC1CCc2c1[nH]c1c2C(=O)C(C)=C(N2CC2)C1=O (stereo not shown) [reference compound]
[4]
  in vivo toxicity (in words): toxicity only seen at the highest dose

## CC1=C(N2CC2)C(=O)c2[nH]c(C)c(C)c2C1=O [reference compound]
[4]
  response vs control in vivo at 2 mg/kg: 22%
  response vs control in vivo at 3 mg/kg: > 50%
  response vs control in vivo at 5 mg/kg: > 50%

## CC1=C(N2CC2)C(=O)c2c([nH]c(C)c2C)C1=O [reference compound]
[4]; [7]
  In vivo T/C (Treated/Control): Toxic (“Toxic” means ≧ 50% lethality before any control growth deaths)
[4]; [8]
  response vs control in vivo at 2 mg/kg: 10%
[4]; [9]
  response vs control in vivo at 3 mg/kg: 60%

## CC1=C(N2CC2)C(=O)c2[nH]c(CO)c(C)c2C1=O [reference compound]
[4]
  in vivo antitumor activity (in words): antitumor activity is retained
  in vivo toxicity (in words): without much toxicity
[4]; [8]
  response vs control in vivo at 2 mg/kg: 61%
[4]; [9]
  response vs control in vivo at 3 mg/kg: 37%
[4]; [7]
  response vs control in vivo at 5 mg/kg: 34%

## CC(=O)OCc1[nH]c2c(c1C)C(=O)C(C)=C(N1CC1)C2=O [reference compound]
[4]
  in vivo antitumor activity (in words): inactive at all doses

## CC(=O)OCc1[nH]c2c(c1C)C(=O)C(N1CC1)=C(C)C2=O [reference compound]
[4]; [9]
  In vivo T/C (Treated/Control): Toxic (“Toxic” means ≧ 50% lethality before any control growth deaths)
[4]; [7]
  In vivo T/C (Treated/Control): Toxic (“Toxic” means ≧ 50% lethality before any control growth deaths)
[4]; [8]
  response vs control in vivo at 2 mg/kg: 47%
